Experimental data taken from patent US11345700B2, “Methods of preparing inhibitors of influenza viruses replication” (priority 2013, dated 2022).

Columns and labels:
influenza A/PR/8/34 = test: In vivo combination of Compound (1) with zanamivir, influenza A challenge in mice
Excerpt: Efficiency quotient, a composite measure of survival, bodyweight loss and lung function (% survival/(% body weight loss at Day 8)*(Penh at Day 6)) is summarized in Table 19B.

[1] = tested on: influenza A/Wisconsin/67/2005 (H3N2) challenge strain virus; test: Human influenza challenge: rates of seroconversion; format: in vivo, healthy volunteers (humans); details: for Serology Sero-conversion, n/N: ≥4-fold increase in anti-influenza antibody titer at Follow-up Visit vs baseline
[2] = Zanamivir 0.3 mg/kg IN x 1 (24 h prior) + Compound (1) 0.3 mg/kg BID (from 2 h prior)
[3] = Zanamivir 0.3 mg/kg IN x 1 (24 h prior) + Compound (1) 1 mg/kg BID (from 2 h prior)
[4] = Zanamivir 1 mg/kg IN x 1 (24 h prior) + Compound (1) 0.1 mg/kg BID (from 2 h prior)
[5] = Zanamivir 1 mg/kg IN x 1 (24 h prior) + Compound (1) 0.3 mg/kg BID (from 2 h prior)
[6] = Zanamivir 1 mg/kg IN x 1 (24 h prior) + Compound (1) 1 mg/kg BID (from 2 h prior)
[7] = Zanamivir 3 mg/kg IN x 1 (24 h prior) + Compound (1) 0.1 mg/kg BID (from 2 h prior)
[8] = Zanamivir 3 mg/kg IN x 1 (24 h prior) + Compound (1) 0.3 mg/kg BID (from 2 h prior)
[9] = Zanamivir 3 mg/kg IN x 1 (24 h prior) + Compound (1) 1 mg/kg BID (from 2 h prior)
[10] = Pooled Compound (1) dose groups

## O=C(O)[C@H]1[C@H]2CC[C@H](CC2)[C@@H]1Nc1nc(-c2c[nH]c3ncc(F)cc23)ncc1F [Compound (1)]
Influenza A/PR/8/34; Compound (1) 0.1 mg/kg BID 10 days, 1st dose 2 h prior to infection, Zanamivir 0
  Survival Rate: 12.5
Influenza A/PR/8/34; Compound (1) 0.3 mg/kg BID 10 days, 1st dose 2 h prior to infection, Zanamivir 0
  Survival Rate: 44.4
Influenza A/PR/8/34; Compound (1) 0.3 mg/kg BID, 1st dose 2 h prior to infection, Zanamivir 0
  Efficiency Quotient (% survival/(% body weight loss at Day 8)*(Penh at Day 6)): 0.59
Influenza A/PR/8/34; Compound (1) 1 mg/kg BID 10 days, 1st dose 2 h prior to infection, Zanamivir 0
  Survival Rate: 100
Influenza A/PR/8/34; Compound (1) 1 mg/kg BID, 1st dose 2 h prior to infection, Zanamivir 0
  Efficiency Quotient (% survival/(% body weight loss at Day 8)*(Penh at Day 6)): 2.32
Influenza A/PR/8/34; Zanamivir 0.3 mg/kg IN x 1 (24 h prior) + Compound (1) 0.1 mg/kg BID (from 2 h prior)
  Survival Rate: 0
Influenza A/PR/8/34; [2]
  Efficiency Quotient (% survival/(% body weight loss at Day 8)*(Penh at Day 6)): 1.35
  Survival Rate: 100
Influenza A/PR/8/34; [3]
  Efficiency Quotient (% survival/(% body weight loss at Day 8)*(Penh at Day 6)): 2.97
  Survival Rate: 100
Influenza A/PR/8/34; [4]
  Efficiency Quotient (% survival/(% body weight loss at Day 8)*(Penh at Day 6)): 1.00
  Survival Rate: 75
Influenza A/PR/8/34; [5]
  Efficiency Quotient (% survival/(% body weight loss at Day 8)*(Penh at Day 6)): 1.61
  Survival Rate: 100
Influenza A/PR/8/34; [6]
  Efficiency Quotient (% survival/(% body weight loss at Day 8)*(Penh at Day 6)): 2.31
  Survival Rate: 100
Influenza A/PR/8/34; [7]
  Efficiency Quotient (% survival/(% body weight loss at Day 8)*(Penh at Day 6)): 1.30
  Survival Rate: 100
Influenza A/PR/8/34; [8]
  Efficiency Quotient (% survival/(% body weight loss at Day 8)*(Penh at Day 6)): 1.48
  Survival Rate: 100
Influenza A/PR/8/34; [9]
  Efficiency Quotient (% survival/(% body weight loss at Day 8)*(Penh at Day 6)): 4.28
  Survival Rate: 100
[1]; 100 mg QD
  Serology Sero-conversion (%): (69%)
  Serology Sero-conversion, n/N: 11/16
[1]; 400 mg QD
  Serology Sero-conversion (%): (47%)
  Serology Sero-conversion, n/N: 9/19
[1]; 900/600 mg
  Serology Sero-conversion (%): (68%)
  Serology Sero-conversion, n/N: 13/19
[1]; 1200/600 mg
  Serology Sero-conversion (%): (67%)
  Serology Sero-conversion, n/N: 12/18
[1]; [10]
  Serology Sero-conversion (%): (63%)
  Serology Sero-conversion, n/N: 45/72
